Measured values: ChEMBL document CHEMBL1201862, “PubChem BioAssay data set” (2004)
Active and inactive are the calls of the source.

Tests used:
[1] = molecular target: Eukaryotic translation initiation factor 4E (Mus musculus, UniProt P63073); assay: eIF4E–eIF4G protein interaction inhibitors, dose response, biochemical, TR-FRET (AID 855); assay type: functional;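 note: potency for disrupting eIF4E binding to eIF4GI seen as loss of FRET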
[2] = molecular target: T1, Hexokinase-1 (Homo sapiens, UniProt P19367); assay: SAR analysis of small molecule inhibitors of hexokinase domain containing I (HKDC1) in the hexokinase 1 selectivity assay. [Related pubchem assays (depositor defined):AID493160, AID493190]; assay type: functional
T1 sequence (P19367 whole entry): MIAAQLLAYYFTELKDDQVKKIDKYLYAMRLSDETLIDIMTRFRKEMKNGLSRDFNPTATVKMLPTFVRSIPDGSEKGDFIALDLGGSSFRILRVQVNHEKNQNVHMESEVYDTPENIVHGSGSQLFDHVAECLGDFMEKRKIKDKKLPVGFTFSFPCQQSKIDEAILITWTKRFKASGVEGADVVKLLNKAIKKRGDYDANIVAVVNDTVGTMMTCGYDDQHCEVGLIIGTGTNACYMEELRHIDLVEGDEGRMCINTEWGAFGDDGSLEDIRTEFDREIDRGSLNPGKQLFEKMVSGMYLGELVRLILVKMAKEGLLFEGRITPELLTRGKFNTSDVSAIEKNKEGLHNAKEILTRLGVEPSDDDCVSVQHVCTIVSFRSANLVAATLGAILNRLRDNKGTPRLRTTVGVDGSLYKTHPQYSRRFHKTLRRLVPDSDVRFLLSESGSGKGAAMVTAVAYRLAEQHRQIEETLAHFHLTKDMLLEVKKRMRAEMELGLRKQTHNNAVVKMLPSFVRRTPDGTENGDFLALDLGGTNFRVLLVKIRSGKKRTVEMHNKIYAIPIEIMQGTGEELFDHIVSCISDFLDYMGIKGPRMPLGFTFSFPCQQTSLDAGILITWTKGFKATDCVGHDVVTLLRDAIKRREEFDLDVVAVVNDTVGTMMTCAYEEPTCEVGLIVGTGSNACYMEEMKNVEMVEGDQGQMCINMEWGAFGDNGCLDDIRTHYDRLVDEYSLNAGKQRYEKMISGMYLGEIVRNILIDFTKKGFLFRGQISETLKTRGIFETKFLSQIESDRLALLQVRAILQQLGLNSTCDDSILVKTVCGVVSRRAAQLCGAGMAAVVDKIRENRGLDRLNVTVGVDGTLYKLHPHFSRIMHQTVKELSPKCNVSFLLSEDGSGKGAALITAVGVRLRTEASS

[3] = molecular target: T2, Hexokinase HKDC1 (Homo sapiens, UniProt Q2TB90); assay: SAR analysis of small molecule inhibitors of hexokinase domain containing I (HKDC1). [Related pubchem assays (depositor defined):AID493160, AID493190]; assay type: functional
T2 sequence (Q2TB90 whole entry): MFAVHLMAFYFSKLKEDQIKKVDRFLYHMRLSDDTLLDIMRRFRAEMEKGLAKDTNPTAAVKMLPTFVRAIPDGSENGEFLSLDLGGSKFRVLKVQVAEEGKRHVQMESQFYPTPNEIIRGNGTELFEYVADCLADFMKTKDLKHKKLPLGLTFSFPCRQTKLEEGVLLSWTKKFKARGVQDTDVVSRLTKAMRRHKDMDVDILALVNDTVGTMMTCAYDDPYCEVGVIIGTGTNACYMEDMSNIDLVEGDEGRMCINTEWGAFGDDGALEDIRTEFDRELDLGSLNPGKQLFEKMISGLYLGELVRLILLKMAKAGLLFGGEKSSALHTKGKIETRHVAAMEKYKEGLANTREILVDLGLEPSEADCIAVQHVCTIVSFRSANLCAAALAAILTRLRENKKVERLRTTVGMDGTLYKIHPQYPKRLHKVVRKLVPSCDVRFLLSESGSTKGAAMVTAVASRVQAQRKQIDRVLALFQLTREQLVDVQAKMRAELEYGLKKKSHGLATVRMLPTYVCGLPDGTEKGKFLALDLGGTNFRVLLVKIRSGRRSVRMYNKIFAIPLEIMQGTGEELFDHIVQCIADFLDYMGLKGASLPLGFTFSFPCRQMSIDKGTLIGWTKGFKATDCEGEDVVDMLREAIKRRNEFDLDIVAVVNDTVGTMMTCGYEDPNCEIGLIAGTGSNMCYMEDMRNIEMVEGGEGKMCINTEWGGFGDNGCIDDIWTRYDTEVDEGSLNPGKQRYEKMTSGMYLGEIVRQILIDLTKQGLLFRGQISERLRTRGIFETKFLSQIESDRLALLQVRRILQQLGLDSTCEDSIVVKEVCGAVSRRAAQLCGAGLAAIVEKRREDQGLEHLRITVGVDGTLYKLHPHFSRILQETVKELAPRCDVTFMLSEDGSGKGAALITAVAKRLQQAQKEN

[4] = molecular target: Cytochrome P450 3A4 (Homo sapiens, UniProt P08684);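 note: CYP3A4 tested as one member of a cytochrome P450 panel screen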
Sequence of Cytochrome P450 3A4 (P08684 whole entry): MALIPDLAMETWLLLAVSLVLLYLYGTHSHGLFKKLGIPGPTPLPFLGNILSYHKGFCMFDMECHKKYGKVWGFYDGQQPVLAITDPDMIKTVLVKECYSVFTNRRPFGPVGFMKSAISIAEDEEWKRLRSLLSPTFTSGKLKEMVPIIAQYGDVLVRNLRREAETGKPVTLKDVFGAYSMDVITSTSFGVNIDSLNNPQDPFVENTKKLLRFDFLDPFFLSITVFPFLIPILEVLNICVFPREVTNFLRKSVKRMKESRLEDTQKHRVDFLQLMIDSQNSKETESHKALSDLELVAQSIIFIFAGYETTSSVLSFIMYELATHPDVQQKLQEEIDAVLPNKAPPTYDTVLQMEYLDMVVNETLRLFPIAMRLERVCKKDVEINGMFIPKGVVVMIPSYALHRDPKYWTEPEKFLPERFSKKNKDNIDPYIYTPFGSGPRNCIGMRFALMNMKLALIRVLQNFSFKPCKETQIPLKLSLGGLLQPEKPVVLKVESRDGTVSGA

[5] = test system: HEK293; assay: NOD1 signaling inhibitors, primary screen, cell-based, luminescence, uHTS (AID 1578); assay type: functional; conditions: Homo sapiens
[6] = test system: Streptococcus sp. 'group A'; assay: growth inhibition of control SK(-) GAS strain, dose response, counter-screen for streptokinase expression inhibitor project, luminescence, kanamycin, BacTiterGlo, confirmation (AID 1900); assay type: functional, organism-based
[7] = test system: HEK293; assay: cells; assay type: functional, cell-based; conditions: Homo sapiens
[8] = molecular target: T3, Streptokinase A (Streptococcus pyogenes serotype M1, UniProt P10520); assay: S. pyogenes streptokinase expression inhibitors, potency, dose response, plasminogen activation absorbance, OD405 (AID 1914); assay type: functional, Streptococcus pyogenes M1 GAS;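 note: secreted streptokinase activity via plasminogen activation per viability signal from cell pellet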
T3 sequence (P10520 whole entry): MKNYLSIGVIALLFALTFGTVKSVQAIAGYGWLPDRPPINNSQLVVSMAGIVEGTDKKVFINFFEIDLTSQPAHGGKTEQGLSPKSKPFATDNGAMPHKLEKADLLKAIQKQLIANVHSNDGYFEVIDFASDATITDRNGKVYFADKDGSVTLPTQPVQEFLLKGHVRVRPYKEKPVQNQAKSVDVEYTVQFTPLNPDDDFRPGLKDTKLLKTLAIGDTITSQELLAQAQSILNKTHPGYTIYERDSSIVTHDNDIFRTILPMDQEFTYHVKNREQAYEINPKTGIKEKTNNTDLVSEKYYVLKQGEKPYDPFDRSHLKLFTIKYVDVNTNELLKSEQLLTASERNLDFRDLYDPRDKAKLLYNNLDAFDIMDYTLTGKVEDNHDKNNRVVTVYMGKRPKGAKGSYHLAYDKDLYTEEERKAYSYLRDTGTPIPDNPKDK

[9] = test system: HEK293; assay: cells; assay type: functional, cell-based; conditions: Homo sapiens; remark: listed apart in the source
[10] = test system: HEK293; assay: NOD2 signaling inhibitors in MDP-stimulated cells, cell-based, uHTS, luminescence (AID 2001); assay type: functional; conditions: Homo sapiens
[11] = test system: Streptococcus; assay: Group A Streptococcus viability loss, dose response, counter-screen for streptokinase expression inhibitor project, luminescence, BacTiterGlo (AID 1915); assay type: functional, organism-based;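 note: potency for reduction of bacterial viability or growth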
[12] = molecular target: Tumor necrosis factor (Homo sapiens, UniProt P01375); assay: TNFa-triggered NF-kB activation inhibitors, SAR follow-up, cell-based, revised (AID 2337); assay type: functional
Sequence of Tumor necrosis factor (P01375 whole entry, the tested form may be a part): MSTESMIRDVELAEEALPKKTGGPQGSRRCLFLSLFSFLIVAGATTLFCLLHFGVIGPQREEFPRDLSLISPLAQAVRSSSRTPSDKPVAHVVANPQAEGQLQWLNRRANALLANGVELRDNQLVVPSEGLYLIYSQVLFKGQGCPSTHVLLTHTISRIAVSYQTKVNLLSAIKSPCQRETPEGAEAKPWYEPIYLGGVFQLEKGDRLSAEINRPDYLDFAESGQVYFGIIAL

[13] = molecular target: T4, Nucleotide-binding oligomerization domain-containing protein 1 (Homo sapiens, UniProt Q9Y239); assay: NOD1 signaling inhibitors, SAR follow-up, revised (AID 2333); assay type: functional
T4 sequence (Q9Y239 whole entry): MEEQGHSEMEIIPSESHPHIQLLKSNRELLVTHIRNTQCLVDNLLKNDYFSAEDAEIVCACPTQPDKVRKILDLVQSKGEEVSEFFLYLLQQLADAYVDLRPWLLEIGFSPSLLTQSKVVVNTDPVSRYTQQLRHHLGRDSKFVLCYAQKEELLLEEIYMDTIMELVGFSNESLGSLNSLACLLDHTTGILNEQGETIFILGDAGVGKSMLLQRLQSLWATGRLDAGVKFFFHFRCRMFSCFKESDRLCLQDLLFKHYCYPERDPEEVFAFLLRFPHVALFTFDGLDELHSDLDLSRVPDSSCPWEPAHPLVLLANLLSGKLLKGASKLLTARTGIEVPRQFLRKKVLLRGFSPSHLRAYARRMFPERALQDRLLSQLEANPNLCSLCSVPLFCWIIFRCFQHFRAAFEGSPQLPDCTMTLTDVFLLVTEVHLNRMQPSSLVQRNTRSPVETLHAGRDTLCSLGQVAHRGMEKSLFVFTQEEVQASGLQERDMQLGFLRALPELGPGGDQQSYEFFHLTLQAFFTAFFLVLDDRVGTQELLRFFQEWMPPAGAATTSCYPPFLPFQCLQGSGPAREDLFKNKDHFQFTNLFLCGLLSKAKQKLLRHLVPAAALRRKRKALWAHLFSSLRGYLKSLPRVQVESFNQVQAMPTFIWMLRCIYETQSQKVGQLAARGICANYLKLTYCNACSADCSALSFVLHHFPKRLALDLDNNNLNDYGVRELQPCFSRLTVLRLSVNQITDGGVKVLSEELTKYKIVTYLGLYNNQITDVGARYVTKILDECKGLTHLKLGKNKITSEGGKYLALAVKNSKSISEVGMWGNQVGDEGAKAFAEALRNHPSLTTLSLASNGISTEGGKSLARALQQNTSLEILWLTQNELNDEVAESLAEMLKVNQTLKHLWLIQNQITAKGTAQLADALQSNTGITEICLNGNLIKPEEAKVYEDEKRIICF

[14] = test system: HEK293; assay: cells; conditions: Homo sapiens

Sequence of Eukaryotic translation initiation factor 4E (P63073 whole entry, the tested form may be a part): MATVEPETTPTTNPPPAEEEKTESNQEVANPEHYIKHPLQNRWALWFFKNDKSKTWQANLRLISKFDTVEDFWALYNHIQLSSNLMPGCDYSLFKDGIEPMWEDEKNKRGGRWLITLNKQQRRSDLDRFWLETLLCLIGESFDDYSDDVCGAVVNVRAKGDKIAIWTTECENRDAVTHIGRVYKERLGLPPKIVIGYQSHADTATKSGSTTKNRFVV

With `O=C(Nc1nnc(SCc2ccc(F)cc2)s1)c1ccc2ncsc2c1` the IC50 [1] was 26.2 µM (active), the IC50 [2] was > 80 µM (inactive) and the IC50 [3] was 12 µM (active).
In the case of `CCOC(=O)N1CCN(c2nc(-c3cccs3)cc(C(F)(F)F)n2)CC1`, the AC50 [4] is reported as “inconclusive”.
In the case of `Cc1ccccc1/C=C1\Sc2ccc(C(=O)N3CCN(c4ccccn4)CC3)cc2N(C)C1=O`, the EC50 [5] is reported as 8.18 µM (active), the EC50 [6] is reported as 4.49 µM (active) and the IC50 [7] is reported as 5.97 µM (active). For the same compound, the EC50 [8] was > 150 µM (not active), the IC50 [9] was 7.21 µM (active) and the IC50 [10] was 6.78 µM (active). The EC50 [11] was 16.6 µM (active), the IC50 [12] was 6.22 µM (active) and the IC50 [13] was 4.28 µM (active). The IC50 [14] was 10.8 µM (active).
In the case of `NC(=O)CN1CCOCCOCCOCCOCCOCC1`, the AC50 [4] is reported as “inconclusive”.
With `COCC(=O)N1CCC2(CC1)CCN(c1ccc(-c3ccccc3)cc1)CC2` the AC50 [4] was “inconclusive”.
In the case of `O=C(O)CSc1cc(NS(=O)(=O)c2ccccc2)c2ccccc2c1O`, the IC50 [2] is reported as > 80 µM (inactive) and the IC50 [3] is reported as 4.84 µM (active).
`Cc1nc(C)c(C(=O)Nc2cccc(C(=O)Nc3cccc(C(F)(F)F)c3)c2)s1` was tested, and the IC50 [2] was > 80 µM (inactive) and the IC50 [3] was > 80 µM (inactive).
